Reference: US11084823B2, “Substituted pyrrolo[2,1-f][1,2,4]triazines as kinase inhibitors” (Daewoong Pharmaceutical Co., Ltd., priority 2017, dated 2021)

Tests used:
[1] = biological target: Recombinant purified human BTK (Homo sapiens (Human), UniProt Q06187); assay: BTK kinase inhibitory activity, ADP-Glo kinase assay kit (Promega V9071); assay type: biochemical; details: ATP 10 uM, 8 ng BTK per reaction, 1 hour at 30° C., chemiluminescence
Description: (§1) JAK3 and BTK kinase inhibitory activities were measured for the compounds prepared in the above Examples through in vitro analysis on the ADP Glow (Glo) platform.
(§2) Specifically, the inhibitory activities of JAK3 and BTK kinase were measured using a JAK3 kinase assay kit (Promega, V9441) and a BTK kinase assay kit (Promega, V9071) which were purchased from Promega. Recombinant purified human JAK3 and BTK were diluted with 1× kinase reaction buffer (JAK3: 40 mM Tris-Cl, pH 7.5, 20 mM MgCl2, 0.1 mg/mL BSA and 50 uM DTT/BTK: 40 mM Tris-Cl, pH 7.5, 20 mM MgCl2, 0.1 mg/mL BSA, 2 mM MnCl2 and 50 uM DTT) and added to a 96 well plate (JAK3: final concentration of 4 ng per reaction/BTK: final concentration of 8 ng per reaction). […] After incubation (30° C.) for 1 hour, equivalent volume (25 uL per reaction) of ADP Glo was added and incubated (30° C.) for 40 minutes at room temperature. Then, a kinase detection reagent (50 uL per reaction) was added and incubated (30° C.) for 30 minutes at room temperature. The kinase activity was measured by chemiluminescence according to the instructions of ADP Glo kinase assay kit, and the inhibitory activity of the compounds according to the present invention was calculated.

[2] = biological target: Recombinant purified human JAK3 (Homo sapiens (Human), UniProt P52333); assay: JAK3 kinase inhibitory activity, ADP-Glo kinase assay kit (Promega V9441); assay type: biochemical; details: ATP 5 uM, 4 ng JAK3 per reaction, 1 hour at 30° C., chemiluminescence
Description: as §1, §2

Recombinant purified human JAK3, sequence (P52333 whole entry): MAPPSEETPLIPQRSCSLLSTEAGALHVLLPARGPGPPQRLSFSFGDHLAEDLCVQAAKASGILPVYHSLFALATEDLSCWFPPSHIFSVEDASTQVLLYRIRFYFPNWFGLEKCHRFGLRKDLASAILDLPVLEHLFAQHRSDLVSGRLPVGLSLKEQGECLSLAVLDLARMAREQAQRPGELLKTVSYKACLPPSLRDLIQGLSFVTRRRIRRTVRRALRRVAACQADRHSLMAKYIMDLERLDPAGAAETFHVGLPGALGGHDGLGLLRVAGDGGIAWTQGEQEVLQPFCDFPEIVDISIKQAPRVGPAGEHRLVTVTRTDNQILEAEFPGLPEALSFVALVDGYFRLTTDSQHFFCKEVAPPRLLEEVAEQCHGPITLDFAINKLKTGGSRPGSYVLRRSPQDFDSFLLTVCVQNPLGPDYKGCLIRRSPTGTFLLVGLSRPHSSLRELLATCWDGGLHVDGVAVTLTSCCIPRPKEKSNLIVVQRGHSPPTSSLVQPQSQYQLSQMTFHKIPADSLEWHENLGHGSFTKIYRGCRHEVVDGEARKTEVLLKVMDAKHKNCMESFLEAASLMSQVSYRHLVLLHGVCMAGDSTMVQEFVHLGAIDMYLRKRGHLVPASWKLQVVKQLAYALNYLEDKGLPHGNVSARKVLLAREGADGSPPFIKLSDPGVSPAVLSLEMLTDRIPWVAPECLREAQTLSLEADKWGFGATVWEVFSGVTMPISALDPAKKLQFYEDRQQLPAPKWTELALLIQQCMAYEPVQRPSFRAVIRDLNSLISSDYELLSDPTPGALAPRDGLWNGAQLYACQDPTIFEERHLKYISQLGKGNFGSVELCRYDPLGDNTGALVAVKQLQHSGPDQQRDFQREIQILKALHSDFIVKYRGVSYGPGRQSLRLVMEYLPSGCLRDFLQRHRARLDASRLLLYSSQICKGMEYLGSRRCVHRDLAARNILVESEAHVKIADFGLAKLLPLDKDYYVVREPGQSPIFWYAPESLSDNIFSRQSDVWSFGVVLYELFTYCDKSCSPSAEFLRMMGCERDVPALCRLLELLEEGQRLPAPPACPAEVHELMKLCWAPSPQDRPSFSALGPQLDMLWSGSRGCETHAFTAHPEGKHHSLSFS
Recombinant purified human BTK, sequence (Q06187 whole entry): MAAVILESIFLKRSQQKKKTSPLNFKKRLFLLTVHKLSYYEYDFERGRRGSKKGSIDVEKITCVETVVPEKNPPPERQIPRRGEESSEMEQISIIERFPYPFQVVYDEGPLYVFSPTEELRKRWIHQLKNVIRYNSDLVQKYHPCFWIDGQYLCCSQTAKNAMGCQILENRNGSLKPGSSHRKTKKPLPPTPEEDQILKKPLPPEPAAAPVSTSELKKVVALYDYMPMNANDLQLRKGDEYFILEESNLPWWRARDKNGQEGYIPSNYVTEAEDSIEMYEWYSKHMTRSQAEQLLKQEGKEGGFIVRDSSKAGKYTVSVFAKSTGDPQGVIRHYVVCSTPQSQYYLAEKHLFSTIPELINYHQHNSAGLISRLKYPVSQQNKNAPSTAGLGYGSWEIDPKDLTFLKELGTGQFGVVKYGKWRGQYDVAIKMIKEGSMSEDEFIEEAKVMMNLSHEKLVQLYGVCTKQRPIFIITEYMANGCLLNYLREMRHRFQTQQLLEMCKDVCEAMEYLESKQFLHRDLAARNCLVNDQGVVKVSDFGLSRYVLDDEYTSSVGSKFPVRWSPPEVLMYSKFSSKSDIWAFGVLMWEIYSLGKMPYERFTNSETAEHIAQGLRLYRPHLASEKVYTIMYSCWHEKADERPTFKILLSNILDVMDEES

Row | IC50 [1] [nM] | IC50 [2] [nM] | Structure (SMILES)
1 | 27.4 | 4.5 | C=CC(=O)Nc1ccc(F)c(Oc2nc(Nc3ccc(N4CCOCC4)cc3)nn3cccc23)c1 [Example 31, N-(4-fluoro-3-((2-((4-morpholinophenyl)amino)pyrrolo[2,1-f][1,2,4]triazin-4-yl)oxy)phenyl)acrylamide]
2 | 9.1 | 1.4 | C=CC(=O)Nc1ccc(F)c(Oc2nc(Nc3cnn(CCC)c3)nn3cccc23)c1 [Example 32, N-(4-fluoro-3-((2-((1-propyl-1H-pyrazol-4-yl)amino)pyrrolo[2,1-f][1,2,4]triazin-4-yl)oxy)phenyl)acrylamide]
3 | 15.3 | 2.8 | C=CC(=O)Nc1ccc(F)c(Oc2nc(Nc3cnn(C(F)F)c3)nn3cccc23)c1 [Example 33, N-(3-((2-((1-(difluoromethyl)-1H-pyrazol-4-yl)amino)pyrrolo[2,1-f][1,2,4]triazin-4-yl)oxy)-4-fluorophenyl)acrylamide]
4 | 2.4 | 0.5 | C=CC(=O)Nc1ccc(F)c(Oc2nc(Nc3cnn(C4CCOCC4)c3)nn3cccc23)c1 [Example 34, N-(4-fluoro-3-((2-((1-(tetrahydro-2H-pyran-4-yl)-1H-pyrazol-4-yl)amino)pyrrolo[2,1-f][1,2,4]triazin-4-yl)oxy)phenyl)acrylamide]
5 | 3.5 | 0.7 | C=CC(=O)Nc1ccc(F)c(Oc2nc(Nc3cnn(CCN4CCOCC4)c3)nn3cccc23)c1 [Example 35, N-(4-fluoro-3-((2-((1-(2-morpholinoethyl)-1H-pyrazol-4-yl)amino)pyrrolo[2,1-f][1,2,4]triazin-4-yl)oxy)phenyl)acrylamide]
6 | 4.4 | 1.1 | C=CC(=O)Nc1ccc(F)c(Oc2nc(Nc3cnn(C(C)C)c3)nn3cccc23)c1 [Example 36, N-(4-fluoro-3-((2-((1-isopropyl-1H-pyrazol-4-yl)amino)pyrrolo[2,1-f][1,2,4]triazin-4-yl)oxy)phenyl)acrylamide]
7 | 63.6 | 11.5 | C=CC(=O)Nc1ccc(F)c(Oc2nc(Nc3cnn(C4CCNCC4)c3)nn3cccc23)c1 [Example 37, N-(4-fluoro-3-((2-((1-(piperidin-4-yl)-1H-pyrazol-4-yl)amino)pyrrolo[2,1-f][1,2,4]triazin-4-yl)oxy)phenyl)acrylamide]
8 | 16.5 | 1.8 | C=CC(=O)Nc1ccc(F)c(Oc2nc(Nc3cnn(CC(F)(F)F)c3)nn3cccc23)c1 [Example 38, N-(4-fluoro-3-((2-((1-(2,2,2-trifluoroethyl)-1H-pyrazol-4-yl)amino)pyrrolo[2,1-f][1,2,4]triazin-4-yl)oxy)phenyl)acrylamide]
9 | 111 | 23.5 | C=CC(=O)Nc1ccc(F)c(Oc2nc(Nc3ccc(-n4nc(C)cc4C)cc3)nn3cccc23)c1 [Example 39, N-(3-((2-((4-(3,5-dimethyl-1H-pyrazol-1-yl)phenyl)amino)pyrrolo[2,1-f][1,2,4]triazin-4-yl)oxy)-4-fluorophenyl)acrylamide]
10 | 23 | 2.8 | C=CC(=O)Nc1ccc(F)c(Oc2nc(Nc3cnn(CCOC)c3)nn3cccc23)c1 [Example 40, N-(4-fluoro-3-((2-((1-(2-methoxyethyl)-1H-pyrazol-4-yl)amino)pyrrolo[2,1-f][1,2,4]triazin-4-yl)oxy)phenyl)acrylamide]
11 | 1.2 | 0.7 | O=C(CCl)Nc1ccc(F)c(Oc2nc(Nc3cnn(CC(F)F)c3)nn3cccc23)c1 [Example 41, 2-chloro-N-(3-((2-((1-(2,2-difluoroethyl)-1H-pyrazol-4-yl)amino)pyrrolo[2,1-f][1,2,4]triazin-4-yl)oxy)-4-fluorophenyl)acetamide]
12 | 1.3 | 0.5 | O=C(CCl)Nc1ccc(F)c(Oc2nc(Nc3cnn(C4CCOCC4)c3)nn3cccc23)c1 [Example 42, 2-chloro-N-(4-fluoro-3-((2-((1-(tetrahydro-2H-pyran-4-yl)-1H-pyrazol-4-yl)amino)pyrrolo[2,1-f][1,2,4]triazin-4-yl)oxy)phenyl)acetamide]
13 | 1.2 | 0.7 | CCn1cc(Nc2nc(Oc3cc(NC(=O)CCl)ccc3F)c3cccn3n2)cn1 [Example 43, 2-chloro-N-(3-((2-((1-ethyl-1H-pyrazol-4-yl)amino)pyrrolo[2,1-f][1,2,4]triazin-4-yl)oxy)-4-fluorophenyl)acetamide]
14 | 114 | 99.5 | CCn1cc(Nc2nc(Oc3cc(NC(=O)/C=C/CCl)ccc3F)c3cccn3n2)cn1 [Example 44, (E)-4-chloro-N-(3-((2-((1-ethyl-1H-pyrazol-4-yl)amino)pyrrolo[2,1-f][1,2,4]triazin-4-yl)oxy)-4-fluorophenyl)but-2-enamide]
15 | 206 | 32 | C=CC(=O)Nc1ccc(F)c(Oc2nc(Nc3cnoc3)nn3cccc23)c1 [Example 45, N-(4-fluoro-3-(2-(isoxazol-4-ylamino)pyrrolo[2,1-f][1,2,4]triazin-4-yloxy)phenyl)acrylamide]
16 | 269 | 56.8 | C=CC(=O)Nc1ccc(Cl)c(Oc2nc(Nc3cnn(CC)c3)nn3cccc23)c1 [Example 46, N-(4-chloro-3-((2-((1-ethyl-1H-pyrazol-4-yl)amino)pyrrolo[2,1-f][1,2,4]triazin-4-yl)oxy)phenyl)acrylamide]
17 | 52.2 | 13 | C=CC(=O)Nc1cc(Oc2nc(Nc3cnn(CC)c3)nn3cccc23)ccc1C [Example 47, N-(5-((2-((1-ethyl-1H-pyrazol-4-yl)amino)pyrrolo[2,1-f][1,2,4]triazin-4-yl)oxy)-2-methylphenyl)acrylamide]
18 | 73.4 | 13.8 | C=CC(=O)Nc1cc(Oc2nc(Nc3cnn(CC(F)F)c3)nn3cccc23)ccc1C [Example 48, N-(5-((2-((1-(2,2-difluoroethyl)-1H-pyrazol-4-yl)amino)pyrrolo[2,1-f][1,2,4]triazin-4-yl)oxy)-2-methylphenyl)acrylamide]
19 | 30 | > 400 | CCC#CC(=O)Nc1ccc(F)c(Oc2nc(Nc3cnn(CC(F)F)c3)nn3cccc23)c1 [Example 49, N-(3-((2-((1-(2,2-difluoroethyl)-1H-pyrazol-4-yl)amino)pyrrolo[2,1-f][1,2,4]triazin-4-yl)oxy)-4-fluorophenyl)pent-2-ynamide]
